Broadly, the MIC is the lowest concentration found to suppress growth. Low values mean greater potency, high ones weaker potency.

≈ marks a conversion by molar mass, not a printed value. Where two headings read alike, the source gives them in different places. Bridge positions count the residues as written; N and C are the ends. Square brackets hold non-standard residues; d marks the D form. Peptide text beside a SMILES is read from it. I, II: the chains in the order shown.

The subject of series [1] is Candida albicans SC5314. Type of series: cell-based. As to conditions: for percent of C. albicans killed at 5 μM concentration: SC5314, 5. The protocol:
Killing assays. The fungicidal activity of the peptides toward Candida albicans was examined by microdilution plate assay as described previously (13). Briefly, from a fresh overnight cultured plate, a single colony was inoculated and diluted in 1 ml of 10 mM sodium phosphate buffer at pH 7.4. Once cell counts had been confirmed by using a hemocytometer, the cells diluted within the same buffer at 1.8×10^5 cells/mil. Cell suspensions of 20 μl were mixed with 20 μl of peptide, which were dissolved in 10 mM sodium phosphate buffer at pH 7.4, and then incubated for 2 hours at 37° C. with shaking at speeds of 550 rpm. The reactions were stopped by the addition of 360 μl yeast nitrogen base (YNB) and then 40 μl of cell suspension was spread onto plates and incubated for 24 hours at 37° C. Sabouraud dextrose agar plates were used for C. albicans killing assay. The number of colony-forming units (CFUs) was counted and each assay was repeated in triplicate. Loss of viability was calculated as [1-(colonies from suspension with peptide/colonies from suspension with no peptide)]×100. For the respiratory activity experiments, Candida albicans was grown in the presence of sodium azide or antimycin A (Sigma Aldrich) before the killing assay was performed.

Series [2] concerns Candida albicans SC5314. The experiment in a line: Minimum inhibitory concentration (MIC) assay with resazurin. Type of series: cell-based. As to conditions: 0.125X RPMI medium, range of three independent experiments. The text has this: (§1) Minimum Inhibitory Concentration Assays: MIC assays were used to evaluate the minimum concentration of each antifungal peptide that would lead to 100% inhibition of growth. In the MIC assay, the colorimetric indicator, resazurin, is used to evaluate cell growth. Resazurin turns pink after reduction by living cells, indicating active cell growth. The unchanged blue color indicated no active cell growth. Colorimetric MIC end-points are interpreted as the lowest drug concentration that remained blue. The lowest dilution that changed from blue to slightly purple is indicative of significant cell growth inhibition; whereas a pink color indicates no growth inhibition. Each individual Candida species was assayed a minimum of three times and the results represent the range of MIC values obtained. The MIC assay was performed as described by the National Committee for Clinical Laboratory Standards M27-A, except we include resazurin as an indicator dye rather than visual inspection and the […] tissue culture medium was used at 0.125× concentration for our assays.
(In general: The colour change of resazurin is a common sign of viable cells or microbes.)

Series [3] relates to Candida glabrata ATCC90030. The description is as above. It counts as cell-based. Particulars: 0.125X RPMI medium, range of three independent experiments.
Excerpt: as §1

The test system of a further series is Candida kefyr ATCC4135. Described as above. It counts as cell-based. Particulars: 0.125X RPMI medium, range of three independent experiments.
Excerpt: as §1

The test system of a further series is Candida krusel ATCC6258. The series is described as above. It counts as cell-based. Particulars: 0.125X RPMI medium, range of three independent experiments.
Excerpt: as §1

For series [4], the system named is Candida lucitaniae ATCC200951. Described as above. Type of series: cell-based. Particulars: 0.125X RPMI medium, range of three independent experiments.
Excerpt: as §1

Series [5] deals with Candida tropicalis ATCC750. Described as above. It counts as cell-based. Particulars: 0.125X RPMI medium, range of three independent experiments.
Excerpt: as §1

For another series, the system named is CD1 mice. Briefly: Acute toxicity testing in CD1 mice (up-down protocol). Particulars: 8 mg/kg, IV, in PBS, CD1 mice. Type of series: in vivo. The protocol:
To evaluate acute toxicity in animals, CD1 outbred mice were injected via tail vein with either KM12 or KM14 using a standard up-down concentration protocol and observed for any symptoms consistent with the toxicity of the peptides (Table 4). Mice were initially injected with KM12 or KM14 at a concentration of 8 mg/kg. […] Thus the KM12 peptide was deemed safe for animals at concentrations up to 10 mg/kg and the use of 5% glucose versus phosphate-buffered saline was deemed safer for administration to the animals. We will continue to evaluate acute toxicity with other KM peptides (i.e. KM23 and KM29) that show excellent promise as antifungal compounds. In addition, we plan to evaluate these peptides for treatment of superficial mucosal infections with Candida species.
Animal Studies: For the animal studies, CD-1 mice of 8-25 grams were injected with the antifungal peptides dissolved in either phosphate-buffered saline or 5% glucose. Peptide concentrations used for the injection of mice were chosen using a standard up-down protocol starting at 8 mg/kg. Peptides were injected into mice intravenously, intramuscularly, or intraperitoneally as indicated. The mice were closely monitored lbr signs of distress after injection. After two hours of continuous monitoring, the mice were evaluated daily for two weeks and necropsies performed after two weeks. For evaluating the immunogenicity of the peptides, mice were injected with peptides at a concentration of 10 mg/kg in 5% glucose. The routes of injection were intravenous, intramuscular, or intraperitoneal. Five mice were injected with the peptide per route of injection. The mice were injected with the same dose of peptide once per month for four months. The mice were monitored for signs of distress after each injection. At the end of the fifth month, the mice were euthanized by an overdose of anesthesia and the serum was collected from each mouse individually as assay for activity against the peptide using dot blots.

In the case of `CC(=O)N[C@@H](Cc1ccccc1)C(=O)N[C@@H](CCCCN)C(=O)N1CCC[C@H]1C(=O)N[C@@H](CCCCN)C(=O)N[C@@H](Cc1ccc(O)cc1)C(N)=O` [KM7, FKPKY] (Ac-FKPKY-NH2), the “Percent killing activity at 25 μM concentration” value (shortened to “Percent killing activity”) in the series with Candida albicans SC5314 [1] (SC5314, 25) was 3%.
Regarding `CC(=O)N[C@@H](Cc1ccccc1)C(=O)N[C@@H](CCCCN)C(=O)N[C@@H](CSSC[C@H](NC(=O)[C@H](CCCCN)NC(=O)[C@H](Cc1ccccc1)NC(C)=O)C(=O)N[C@@H](CCCNC(=N)N)C(=O)N[C@@H](CCCCN)C(=O)N[C@@H](Cc1ccc(O)cc1)C(N)=O)C(=O)N[C@@H](CCCNC(=N)N)C(=O)N[C@@H](CCCCN)C(=O)N[C@@H](Cc1ccc(O)cc1)C(N)=O` [KM16, F-K-C-R-K-Y] (I: Ac-FKCRKY-NH2 / II: Ac-FKCRKY-NH2; disulfide I:3-II:3), the “antifungal activity relative to comparator peptides (in words)” value in the series on Candida albicans SC5314 [1] (Candida albicans SC5314) is “very promising antifungal activity compatible with that of KM12 and KM14”. For the same molecule, the “percent of C. albicans killed at 5 μM concentration” value in the series with Candida albicans SC5314 [1] is on record as over 90%.
For `CC(=O)N[C@@H](Cc1ccccc1)C(=O)N[C@@H](CCCCN)C(=O)N[C@@H](CCCNC(=N)N)C(=O)N[C@@H](CCCCN)C(=O)N[C@@H](Cc1ccccc1)C(N)=O` [KM9, FKRKF] (Ac-FKRKF-NH2), in the series on Candida albicans SC5314 [1] (SC5314, 25), the “Percent killing activity” value is listed as 70%.
Consider `CC(=O)N[C@@H](CS)C(=O)N[C@@H](Cc1ccccc1)C(=O)N[C@@H](CCCCN)C(=O)N[C@@H](CCCNC(=N)N)C(=O)N[C@@H](CCCCN)C(=O)N[C@@H](Cc1ccc(O)cc1)C(N)=O` [KM11, C-F-K-R-K-Y] (Ac-CFKRKY-NH2), for which the “antifungal activity relative to comparator peptides (in words)” value in the series with Candida albicans SC5314 [1] (Candida albicans SC5314) is “did not alter its antifungal activity”. For the same molecule, the “Percent killing activity” value in the series on Candida albicans SC5314 [1] (SC5314, 25) is 95%.
Take `CC(=O)N[C@@H](Cc1ccccc1)C(=O)N[C@@H](CCCCN)C(=O)N[C@@H](CO)C(=O)N[C@@H](CCCCN)C(=O)N[C@@H](Cc1ccc(O)cc1)C(N)=O` [KM8, FKSKY] (Ac-FKSKY-NH2): the “Percent killing activity” value in the series with Candida albicans SC5314 [1] (SC5314, 25) amounted to 0%.
As for `CC(=O)N[C@@H](Cc1ccc(O)cc1)C(=O)N[C@@H](CCCCN)C(=O)N[C@@H](CCCNC(=N)N)C(=O)N[C@@H](CCCCN)C(=O)N[C@@H](Cc1ccccc1)C(=O)N[C@@H](Cc1ccccc1)C(=O)N[C@@H](CCCCN)C(=O)N[C@@H](CCCNC(=N)N)C(=O)N[C@@H](CCCCN)C(=O)N[C@@H](Cc1ccc(O)cc1)C(N)=O` [KM23, Y-K-R-K-F-F-K-R-K-Y] (Ac-YKRKFFKRKY-NH2), the “LD50 in killing assays” value in the series on Candida albicans SC5314 [1] (Candida albicans SC5314) stood at 62.5 nM. Besides, the MIC is 4.7 µg/mL (≈ 3.12 µM) against Candida albicans SC5314 [2]; 75.4 µg/mL (≈ 50.1 µM) in series [3]; 1.2 to 4.7 µg/mL against Candida kefyr ATCC4135; 4.7 µg/mL (≈ 3.12 µM) in the series on Candida krusel ATCC6258; 2.4 µg/mL (≈ 1.59 µM) in series [4]; 2.4 to 4.7 µg/mL in series [5].
Regarding `CC(=O)N[C@@H](Cc1ccccc1)C(=O)N[C@@H](CCCCN)C(=O)N[C@@H](CCCNC(=N)N)C(=O)N[C@@H](CCCCN)C(=O)N[C@@H](Cc1ccc(O)cc1)C(N)=O` [KM5, F-K-R-K-Y] (Ac-FKRKY-NH2), the “Percent killing activity” value with Candida albicans SC5314 [1] (25 μM peptide, Candida albicans SC5314) stood at 85%. Further, in the series on Candida albicans SC5314 [1] (Candida albicans SC5314, 2 hours at 37° C., calculated using a linear regression equation), the “LD50 (dose of peptide required to achieve 50% killing)” value is 5 µM.
On to `CC(=O)N[C@@H](CSSC[C@H](NC(C)=O)C(=O)N[C@@H](Cc1c[nH]c2ccccc12)C(=O)N[C@@H](CCCCN)C(=O)N[C@@H](CCCNC(=N)N)C(=O)N[C@@H](CCCCN)C(=O)N[C@@H](Cc1c[nH]c2ccccc12)C(N)=O)C(=O)N[C@@H](Cc1c[nH]c2ccccc12)C(=O)N[C@@H](CCCCN)C(=O)N[C@@H](CCCNC(=N)N)C(=O)N[C@@H](CCCCN)C(=O)N[C@@H](Cc1c[nH]c2ccccc12)C(N)=O` [KM14, W-K-R-K-W-C-----C-W-K-R-K-W], for which the “signs observed on tested animals” value in the series on CD1 mice is listed as “immediate death”.
With `CC(=O)N[C@H]1CSSC[C@@H](C(N)=O)NC(=O)[C@H](Cc2ccc(O)cc2)NC(=O)[C@H](CCCCN)NC(=O)[C@H](CCCNC(=N)N)NC(=O)[C@H](CCCCN)NC(=O)[C@H](Cc2ccccc2)NC1=O` [KM17, C-F-K-R-K-Y-C] (Ac-CFKRKYC-NH2; disulfide 1-7), the “antifungal activity relative to comparator peptides (in words)” value with Candida albicans SC5314 [1] (Candida albicans SC5314) was “very promising antifungal activity compatible with that of KM12 and KM14”. For the same molecule, the “percent of C. albicans killed at 5 μM concentration” value with Candida albicans SC5314 [1] was over 90%.
As to `CC(=O)N[C@H](Cc1ccccc1)C(=O)N[C@H](CCCCN)C(=O)N[C@H](CCCNC(=N)N)C(=O)N[C@H](CCCCN)C(=O)N[C@H](Cc1ccc(O)cc1)C(N)=O` [KM6, dF-dK-dR-dK-dY] (Ac-[dF][dK][dR][dK][dY]-NH2), the “antifungal activity relative to comparator peptides (in words)” value in the series on Candida albicans SC5314 [1] (Candida albicans SC5314) is “equivalent antifungal activity”.
`CC(=O)N[C@@H](CCCCN)C(=O)N[C@@H](Cc1ccccc1)C(=O)N[C@@H](CCCNC(=N)N)C(=O)N[C@@H](Cc1ccc(O)cc1)C(=O)N[C@@H](CCCCN)C(N)=O` [KM10, KFRYK] (Ac-KFRYK-NH2): in the series with Candida albicans SC5314 [1] (SC5314, 25), the “Percent killing activity” value was 55%.
With `CC(=O)N[C@@H](Cc1ccc(O)cc1)C(=O)N[C@@H](CCCCN)C(=O)N[C@@H](CCCNC(=N)N)C(=O)N[C@@H](CCCCN)C(=O)N[C@@H](Cc1ccccc1)C(=O)N[C@@H](CCCCN)C(=O)N[C@@H](CCCNC(=N)N)C(=O)N[C@@H](CCCCN)C(=O)N[C@@H](Cc1ccc(O)cc1)C(N)=O` [KM29, Y-K-R-K-F-K-R-K-Y] (Ac-YKRKFKRKY-NH2), the “LD50 in killing assays” value in the series with Candida albicans SC5314 [1] (Candida albicans SC5314) is listed as 62.5 nM. Further, the MIC against Candida albicans SC5314 [2] was 4.2 to 8.4 µg/mL; in series [3] it was 67.5 µg/mL (≈ 49.7 µM); with Candida kefyr ATCC4135, 2.1 to 4.3 µg/mL; with Candida krusel ATCC6258, 4.2 µg/mL (≈ 3.09 µM); in series [4], 2.1 to 4.2 µg/mL; in series [5] it was 2.1 to 4.2 µg/mL.

Values taken from patent publication US9556226B2, “Peptides with antifungal activity and methods of using the peptides” (THE BOARD OF TRUSTEES OF THE UNIVERSITY OF ARKANSAS, priority 2013, dated 2017).
